Earlier results as cited in patent US20060134244A1, “Breast health supplement and detoxification preparations” (priority 2004, published 2006).

Key:
[1] = tested on: precancerous lesions of the cervix and laryngeal papillomas; conditions: pathologies with a human papillomavirus (HPV); reported
[2] = oral administration; reported

unabsorbed EDTA that remains within the digestive tract [2] | SMILES | clinical effectiveness in treating precancerous lesions of the cervix and laryngeal papillomas [1]
– | c1ccc2c(Cc3c[nH]c4ccccc34)c[nH]c2c1 [DIM, 3,3′-diindolylmethane] | clinically effective
95% | O=C(O)CN(CCN(CC(=O)O)CC(=O)O)CC(=O)O [EDTA, ethylenediamine-N,N,N′,N′-tetraacetic acid] | –
– | OCc1c[nH]c2ccccc12 [Example I3C, indole-3-carbinol] | clinically effective
